This note sets out measurements from patent US20240300945A1, “CLY SERIES COMPOUND, PREPARATION METHOD THEREFOR AND USE THEREOF IN PREPARATION OF DRUGS” (NANJING WELLBEST PHARMACEUTICAL CO., LTD, priority 2021, published 2024).

The subject of the assay is rabbit ear acne model. Nature of the assay: Rabbit ear acne model: macroscopic observation and histological grading. Format: in vivo, New Zealand rabbits. Particulars: right ear, 10 per group; for number of rabbits with acne histological grading 2+: Grade 2; for number of rabbits with acne histological grading —: Level 0, without acne; for number of rabbits with acne histological grading 1+: Level 1; for number of rabbits with acne histological grading 3+: Level 3. From the text: (1) Preparation method of treatment cream: The excipient matrix components included methyl silicone oil (15%), stearic acid (6%), white vaseline (5%), liquid paraffin (5%), octadecanol (5%), glycerin (20%), alkyl aryl polyglycol ether (1%), fatty alcohol polyoxyethylene ether (1%), […] (1%), ethyl paraben (0.1%), distilled water (about 31-55%), and mixed with appropriate amount of CLY series compounds to form a mixed emulsion. The emulsion matrix used in this embodiment refers to the matrix component after the active ingredient was removed from the emulsion.
(2) Positive therapeutic drug: 0.1% adapalene gel (Trade name: Differin, produced by Laboratoires Galderma, France).
New Zealand rabbits were, according to weights, randomly divided into the model control group (applied cream matrix), positive treatment group (applied Differin on the skin), CLY-1 external treatment group (0.25% CLY-1 cream on the skin), CLY-2 external treatment group (0.25% CLY-2 cream on the skin), CLY-3 external treatment group (0.25% CLY-3 cream on the skin), CLY-4 external treatment group (0.25% CLY-4 cream on the skin) CLY-8 external treatment group (0.25% CLY-8 cream on the skin), CLY-9 external treatment group (0.25% CLY-9 cream on the skin), CLY-11 external treatment group (0.25% CLY-11 cream on the skin), CLY-19 external treatment group (0.25% CLY-19 cream on the skin), CLY-36 external treatment group (0.25% CLY-36 cream on the skin); CLY-1 intravenous injection group (1 mg/kg·d), CLY-2 intravenous injection group (1 mg/kg·d), CLY-3 intravenous injection group (1 mg/kg·d), CLY-4 intravenous injection group (1 mg/kg·d), CLY-8 intravenous injection group (1 mg/kg·d), CLY-9 intravenous injection group (1 mg/kg·d), CLY-11 intravenous injection group (1 mg/kg·d), CLY-19 intravenous injection group (1 mg/kg·d), and CLY-36 intravenous injection group (1 mg/kg·d), with 10 in each group. Took the inner side of the rabbit's right ear for depilation treatment as the observation area, and the inner side of the left ear of all rabbits as their own negative control, and applied 95% alcohol. The inner side of the right ear of the model group and the treatment group were both coated with 2% coal tar (Alfa Aesar China, which used 95% alcohol to prepare 2% coal tar solution), and evenly applied the sterile cotton swab to the opening of the ear duct on the inner side of the rabbit's ear within the range of about 2 cm×2 cm, once a day, 0.5 mL each time, and wiped the previous application site with warm water for 14 consecutive days to establish the acne micro-pigmentation model. Visually observed the changes of local skin, including ear thickness, hardness, roughness, and whether there was a black angle plug at the hair follicle mouth. 18 hours after the last application, the sample was sacrificed and skin was taken. The skin tissue was taken from the application site by using a 5 mm punch, fixed with 10% formaldehyde, embedded in paraffin, and stained with HE. The histopathological observation and analysis were carried out.
The histological grading criteria of the acne model: 3 grades according to histological grade. […] The tight keratin embolism in the hair follicles causes severe expansion of the hair follicles, obvious hyperplasia of the sebaceous duct epithelium, skin bulges and scars, and some sebaceous glands degenerate “3±”.
SPSS16 software was used for statistical analysis. The paired t-test was used for the left and right self-contrast, and the t-test was used for the comparison between the groups, P<0.05 was statistically significant.

Setting [1] is: external use (0.25% CLY cream; positive: Differin).
Where [2] appears, read: intravenous injection 1 mg/kg·d.

As to `CN1CCC[C@@H](N(C(=O)c2ccc(-n3nnc4cccnc43)cc2)c2ncccc2Cl)C1` [CLY-1, (R)-4-(3H-[1,2,3]triazolo[4,5-b]pyridin-3-yl)-N-(3-chloropyridin-2-yl)-N-(1-methylpiperidin-3-yl)benzamide], under setting [1], the “number of rabbits with acne histological grading 2+” value is 2, the “number of rabbits with acne histological grading —” value was 5, the “number of rabbits with acne histological grading 1+” value was found to be 3 and the “number of rabbits with acne histological grading 3+” value is recorded as 0. Also, under setting [2], the “number of rabbits with acne histological grading 2+” value is reported as 1, the “number of rabbits with acne histological grading —” value was found to be 7, the “number of rabbits with acne histological grading 1+” value worked out at 2 and the “number of rabbits with acne histological grading 3+” value is reported as 0.

Turning to `CCN1CCC[C@@H](N(C(=O)c2ccc(-n3nnc4cccnc43)cc2)c2ncccc2Cl)C1` [CLY-2, (R)-4-(3H-[1,2,3]triazolo[4,5-b]pyridin-3-yl)-N-(3-chloropyridin-2-yl)-N-(1-ethylpiperidin-3-yl)benzamide], under setting [1], the “number of rabbits with acne histological grading 2+” value was found to be 2, the “number of rabbits with acne histological grading —” value was 6, the “number of rabbits with acne histological grading 1+” value stood at 2 and the “number of rabbits with acne histological grading 3+” value came to 0. Moreover, under setting [2], the “number of rabbits with acne histological grading 2+” value is listed as 1, the “number of rabbits with acne histological grading —” value stood at 8, the “number of rabbits with acne histological grading 1+” value stood at 1 and the “number of rabbits with acne histological grading 3+” value worked out at 0.

Regarding `CNC1CCCC(N(C(=O)c2ccc(-n3nnc4cccnc43)cc2)c2ncccc2Cl)C1` (stereo not drawn) [CLY-3], under setting [1], the “number of rabbits with acne histological grading 2+” value was 2, the “number of rabbits with acne histological grading —” value is listed as 4, the “number of rabbits with acne histological grading 1+” value is given as 4 and the “number of rabbits with acne histological grading 3+” value was determined as 0. Also, under setting [2], the “number of rabbits with acne histological grading 2+” value is 2, the “number of rabbits with acne histological grading —” value is 6, the “number of rabbits with acne histological grading 1+” value was found to be 2 and the “number of rabbits with acne histological grading 3+” value worked out at 0.

Regarding `O=C(c1ccc(-n2nnc3cccnc32)cc1)N(c1ncccc1Cl)C1CCCC(O)C1` (stereo not drawn) [CLY-4], under setting [1], the “number of rabbits with acne histological grading 2+” value was 2, the “number of rabbits with acne histological grading —” value was 3, the “number of rabbits with acne histological grading 1+” value is given as 5 and the “number of rabbits with acne histological grading 3+” value is 0. Also, under setting [2], the “number of rabbits with acne histological grading 2+” value is 2, the “number of rabbits with acne histological grading —” value is on record as 5, the “number of rabbits with acne histological grading 1+” value was 3 and the “number of rabbits with acne histological grading 3+” value was 0.

In the case of `O=C(c1ccc(-n2nnc3cccnc32)cc1)N(c1ncccc1Cl)[C@@H]1CCNC1` [CLY-8, (R)-4-(3H-[1,2,3]triazolo[4,5-b]pyridin-3-yl)-N-(3-chloropyridin-2-yl)-N-(pyrrolidin-3-yl)benzamide], under setting [1], the “number of rabbits with acne histological grading 2+” value was 1, the “number of rabbits with acne histological grading —” value was determined as 8, the “number of rabbits with acne histological grading 1+” value was determined as 1 and the “number of rabbits with acne histological grading 3+” value is 0. Further, under setting [2], the “number of rabbits with acne histological grading 2+” value was found to be 0, the “number of rabbits with acne histological grading —” value is recorded as 9, the “number of rabbits with acne histological grading 1+” value is 1 and the “number of rabbits with acne histological grading 3+” value is on record as 0.

On to `NC1CCCC(N(C(=O)c2ccc(-n3nnc4cccnc43)cc2)c2ncccc2Cl)C1` (stereo not drawn) [CLY-11], for which, under setting [1], the “number of rabbits with acne histological grading 2+” value stood at 2, the “number of rabbits with acne histological grading —” value stood at 5, the “number of rabbits with acne histological grading 1+” value was found to be 3 and the “number of rabbits with acne histological grading 3+” value is 0. Further, under setting [2], the “number of rabbits with acne histological grading 2+” value is 1, the “number of rabbits with acne histological grading —” value stood at 7, the “number of rabbits with acne histological grading 1+” value is given as 2 and the “number of rabbits with acne histological grading 3+” value is listed as 0.

In the case of `O=C(c1ccc(-c2ccccc2-c2nnn[nH]2)cc1)N(c1ncccc1Cl)[C@@H]1CCCNC1` [CLY-19], under setting [1], the “number of rabbits with acne histological grading 2+” value is 3, the “number of rabbits with acne histological grading —” value is on record as 5, the “number of rabbits with acne histological grading 1+” value is listed as 2 and the “number of rabbits with acne histological grading 3+” value is reported as 0. Besides, under setting [2], the “number of rabbits with acne histological grading 2+” value worked out at 1, the “number of rabbits with acne histological grading —” value is on record as 8, the “number of rabbits with acne histological grading 1+” value is listed as 1 and the “number of rabbits with acne histological grading 3+” value came out at 0.

With `O=C(c1ccc(-c2ccccc2Cl)cc1)N(c1ncccc1Cl)[C@@H]1CCCNC1` [CLY-36], under setting [1], the “number of rabbits with acne histological grading 2+” value is 4, the “number of rabbits with acne histological grading —” value was found to be 5, the “number of rabbits with acne histological grading 1+” value was 1 and the “number of rabbits with acne histological grading 3+” value was found to be 0. In addition, under setting [2], the “number of rabbits with acne histological grading 2+” value was found to be 2, the “number of rabbits with acne histological grading —” value is on record as 7, the “number of rabbits with acne histological grading 1+” value is given as 1 and the “number of rabbits with acne histological grading 3+” value is reported as 0.

As for `Nc1ccccc1-c1ccc(C(=O)N(c2ncccc2Cl)[C@@H]2CCCNC2)cc1` [CLY-39], under setting [1], the “number of rabbits with acne histological grading 2+” value is listed as 1, the “number of rabbits with acne histological grading —” value is recorded as 6, the “number of rabbits with acne histological grading 1+” value is recorded as 3 and the “number of rabbits with acne histological grading 3+” value was 0. Moreover, under setting [2], the “number of rabbits with acne histological grading 2+” value is 1, the “number of rabbits with acne histological grading —” value amounted to 7, the “number of rabbits with acne histological grading 1+” value is on record as 2 and the “number of rabbits with acne histological grading 3+” value was 0.
